Experimental data from patent publication US10988462B2, “Pyrazole compounds substituted with heteroaryl and pharmaceutical use thereof” (Japan Tobacco Inc., priority 2018, dated 2021).

Tests used:
[1] = test system: Salmonella typhimurium TA98; test: Ames test (reverse mutation test), pre-incubation method, strain TA98; conditions: for potential to induce reverse mutations: TA98, in the presence of S9 mix
Method: (§1) Ames Test (Reverse Mutation Test)
(§2) Metabolites 1 to 3 and Metabolites A to E were each tested herein. The purpose of this test is to evaluate the potential of each metabolite to induce reverse mutations in the standard strains of Salmonella typhimurium (TA98, TA1537, TA100, and TA1535) and Escherichia coli (WP2uvrA), in either the presence or absence of a rat liver metabolic activation system (S9 mix).
(§3) The solvent used herein was dimethyl sulfoxide (DMSO, 100 μL/plate).
(§4) The test was performed by the pre-incubation method with or without S9 mix. When the test was performed without S9 mix, sodium phosphate buffer solution (pH 7.4) was added.
(§5) 0.5 mL of S9 mix or 0.5 mL of 0.1 mol/L sodium phosphate buffer solution (pH 7.4), and 0.1 mL of the bacterial culture solution were added to a test tube containing 0.1 mL of the negative control formulation (DMSO alone), the metabolite, or the positive control formulation. The mixtures were pre-incubated at 37° C. for 20 minutes while shaking. After the pre-incubation period, 2 mL of top agar were added and the mixtures were vortex-mixed and seeded onto plates. Two plates per treatment were used. Each plate was incubated at 37±1° C. for 48 hours or more and the revertant colonies were counted. The mean number of revertant colonies for each treatment plate was then calculated. The presence or absence of growth inhibition due to any antibacterial effect of the test article and precipitation of the test article was observed grossly or under a stereomicroscope. […] Evaluation was based on mean values with no statistical comparisons being used.

Escherichia coli WP2uvrA = test: Ames test (reverse mutation test), pre-incubation method, strain WP2uvrA; assay type: cell-based
Excerpt: as §1
Two plates per treatment were used.

[2] = test system: Salmonella typhimurium TA100; test: Ames test (reverse mutation test), pre-incubation method, strain TA100; assay type: cell-based; conditions: for potential to induce reverse mutations: TA100, in the presence of S9 mix
Method: as §1, §2, §3, §4, §5

[3] = test system: Salmonella typhimurium TA1537; test: Ames test (reverse mutation test), pre-incubation method, strain TA1537; assay type: cell-based; conditions: for potential to induce reverse mutations: TA1537
Method: as §1, §2, §3, §4, §5

[4] = test system: Salmonella typhimurium TA1535; test: Ames test (reverse mutation test), pre-incubation method, strain TA1535; assay type: cell-based; conditions: TA1535; in the presence of S9 mix
Method: as §1, §2, §3, §4, §5

Nc1cc(-c2cc(F)cc(OC(F)(F)F)c2)n(-c2cncc(F)c2)n1 [Metabolite 2]
Number of revertant colonies TA98 ([1]; S9 mix +, dose 62 μg/plate): 35
Number of revertant colonies TA98 ([1]; S9 mix −, dose 21 μg/plate): 30
Number of revertant colonies TA98 ([1]; S9 mix −, dose 185 μg/plate): 28
Number of revertant colonies WP2uvrA (Escherichia coli WP2uvrA; S9 mix +, dose 6.9 μg/plate): 19
Number of revertant colonies WP2uvrA (Escherichia coli WP2uvrA; S9 mix +, dose 21 μg/plate): 19
Number of revertant colonies WP2uvrA (Escherichia coli WP2uvrA; S9 mix +, dose 62 μg/plate): 19
Number of revertant colonies WP2uvrA (Escherichia coli WP2uvrA; S9 mix +, dose 185 μg/plate): 19
Number of revertant colonies WP2uvrA (Escherichia coli WP2uvrA; S9 mix +, dose 556 μg/plate): 17
Number of revertant colonies WP2uvrA (Escherichia coli WP2uvrA; S9 mix +, dose 1667 μg/plate): 14
Number of revertant colonies WP2uvrA (Escherichia coli WP2uvrA; S9 mix +, dose 5000 μg/plate): 9
Number of revertant colonies WP2uvrA (Escherichia coli WP2uvrA; S9 mix −, dose 6.9 μg/plate): 21
Number of revertant colonies WP2uvrA (Escherichia coli WP2uvrA; S9 mix −, dose 21 μg/plate): 16
Number of revertant colonies WP2uvrA (Escherichia coli WP2uvrA; S9 mix −, dose 62 μg/plate): 23
Number of revertant colonies WP2uvrA (Escherichia coli WP2uvrA; S9 mix −, dose 185 μg/plate): 20
Number of revertant colonies WP2uvrA (Escherichia coli WP2uvrA; S9 mix −, dose 556 μg/plate): 16
Number of revertant colonies WP2uvrA (Escherichia coli WP2uvrA; S9 mix −, dose 1667 μg/plate): 13
Number of revertant colonies WP2uvrA (Escherichia coli WP2uvrA; S9 mix −, dose 5000 μg/plate): 8
Number of revertant colonies TA100 ([2]; S9 mix +, dose 6.9 μg/plate): 109
Number of revertant colonies TA100 ([2]; S9 mix +, dose 21 μg/plate): 119
Number of revertant colonies TA100 ([2]; S9 mix +, dose 62 μg/plate): 118
Number of revertant colonies TA100 ([2]; S9 mix +, dose 185 μg/plate): 125
Number of revertant colonies TA100 ([2]; S9 mix +, dose 556 μg/plate): 115
Number of revertant colonies TA100 ([2]; S9 mix +, dose 1667 μg/plate): 97
Number of revertant colonies TA100 ([2]; S9 mix +, dose 5000 μg/plate): 92
Number of revertant colonies TA100 ([2]; S9 mix −, dose 6.9 μg/plate): 89
Number of revertant colonies TA100 ([2]; S9 mix −, dose 21 μg/plate): 90
Number of revertant colonies TA100 ([2]; S9 mix −, dose 62 μg/plate): 87
Number of revertant colonies TA100 ([2]; S9 mix −, dose 185 μg/plate): 86
Number of revertant colonies TA100 ([2]; S9 mix −, dose 556 μg/plate): 6
Number of revertant colonies TA100 ([2]; S9 mix −, dose 1667 μg/plate): 5
Number of revertant colonies TA100 ([2]; S9 mix −, dose 5000 μg/plate): 5
Number of revertant colonies TA1537 ([3]; S9 mix +, dose 6.9 μg/plate): 12
Number of revertant colonies TA1537 ([3]; S9 mix +, dose 21 μg/plate): 13
Number of revertant colonies TA1537 ([3]; S9 mix +, dose 62 μg/plate): 12
Number of revertant colonies TA1537 ([3]; S9 mix +, dose 185 μg/plate): 12
Number of revertant colonies TA1537 ([3]; S9 mix +, dose 556 μg/plate): 8
Number of revertant colonies TA1537 ([3]; S9 mix +, dose 1667 μg/plate): 0
Number of revertant colonies TA1537 ([3]; S9 mix +, dose 5000 μg/plate): 1
Number of revertant colonies TA1537 ([3]; S9 mix −, dose 6.9 μg/plate): 9
Number of revertant colonies TA1537 ([3]; S9 mix −, dose 21 μg/plate): 8
Number of revertant colonies TA1537 ([3]; S9 mix −, dose 62 μg/plate): 8
Number of revertant colonies TA1537 ([3]; S9 mix −, dose 185 μg/plate): 8
Number of revertant colonies TA1537 ([3]; S9 mix −, dose 556 μg/plate): 3
Number of revertant colonies TA1537 ([3]; S9 mix −, dose 1667 μg/plate): 3
Number of revertant colonies TA1537 ([3]; S9 mix −, dose 5000 μg/plate): 2

Nc1cc(-c2cccc(OCC(F)(F)F)c2)n(-c2ccc(F)cc2)n1 [Metabolite B, reference compound]
potential to induce reverse mutations [1]: had potential to induce reverse mutations
potential to induce reverse mutations [2]: had potential to induce reverse mutations
potential to induce reverse mutations [4]: had potential to induce reverse mutations
potential to induce reverse mutations ([3]; in the absence of S9 mix): had potential to induce reverse mutations
potential to induce reverse mutations ([3]; in the presence of S9 mix): had potential to induce reverse mutations

Cc1ccc(-n2nc(N)cc2-c2cccc(OCC(F)(F)F)c2)cc1 [Metabolite C, reference compound]
potential to induce reverse mutations [1]: had potential to induce reverse mutations
potential to induce reverse mutations (Escherichia coli WP2uvrA; WP2uvrA, in the absence of S9 mix): had potential to induce reverse mutations
potential to induce reverse mutations [2]: had potential to induce reverse mutations
potential to induce reverse mutations ([3]; in the presence of S9 mix): had potential to induce reverse mutations

Nc1cc(-c2cc(F)cc(OC(F)(F)F)c2)n(-c2cncc(C(F)(F)F)c2)n1 [Metabolite 3]
Number of revertant colonies TA98 ([1]; S9 mix +, dose 62 μg/plate): 38
Number of revertant colonies TA98 ([1]; S9 mix −, dose 62 μg/plate): 29
Number of revertant colonies WP2uvrA (Escherichia coli WP2uvrA; S9 mix +, dose 6.9 μg/plate): 22
Number of revertant colonies WP2uvrA (Escherichia coli WP2uvrA; S9 mix +, dose 21 μg/plate): 22
Number of revertant colonies WP2uvrA (Escherichia coli WP2uvrA; S9 mix +, dose 62 μg/plate): 21
Number of revertant colonies WP2uvrA (Escherichia coli WP2uvrA; S9 mix +, dose 185 μg/plate): 21
Number of revertant colonies WP2uvrA (Escherichia coli WP2uvrA; S9 mix +, dose 556 μg/plate): 18
Number of revertant colonies WP2uvrA (Escherichia coli WP2uvrA; S9 mix +, dose 1667 μg/plate): 21
Number of revertant colonies WP2uvrA (Escherichia coli WP2uvrA; S9 mix +, dose 5000 μg/plate): 19
Number of revertant colonies WP2uvrA (Escherichia coli WP2uvrA; S9 mix −, dose 6.9 μg/plate): 23
Number of revertant colonies WP2uvrA (Escherichia coli WP2uvrA; S9 mix −, dose 21 μg/plate): 15
Number of revertant colonies WP2uvrA (Escherichia coli WP2uvrA; S9 mix −, dose 62 μg/plate): 23
Number of revertant colonies WP2uvrA (Escherichia coli WP2uvrA; S9 mix −, dose 185 μg/plate): 20
Number of revertant colonies WP2uvrA (Escherichia coli WP2uvrA; S9 mix −, dose 556 μg/plate): 22
Number of revertant colonies WP2uvrA (Escherichia coli WP2uvrA; S9 mix −, dose 1667 μg/plate): 19
Number of revertant colonies WP2uvrA (Escherichia coli WP2uvrA; S9 mix −, dose 5000 μg/plate): 14
Number of revertant colonies TA100 ([2]; S9 mix +, dose 6.9 μg/plate): 134
Number of revertant colonies TA100 ([2]; S9 mix +, dose 21 μg/plate): 123
Number of revertant colonies TA100 ([2]; S9 mix +, dose 62 μg/plate): 108
Number of revertant colonies TA100 ([2]; S9 mix +, dose 185 μg/plate): 103
Number of revertant colonies TA100 ([2]; S9 mix +, dose 556 μg/plate): 99
Number of revertant colonies TA100 ([2]; S9 mix +, dose 1667 μg/plate): 67
Number of revertant colonies TA100 ([2]; S9 mix +, dose 5000 μg/plate): 43
Number of revertant colonies TA100 ([2]; S9 mix −, dose 6.9 μg/plate): 88
Number of revertant colonies TA100 ([2]; S9 mix −, dose 21 μg/plate): 91
Number of revertant colonies TA100 ([2]; S9 mix −, dose 62 μg/plate): 93
Number of revertant colonies TA100 ([2]; S9 mix −, dose 185 μg/plate): 92
Number of revertant colonies TA100 ([2]; S9 mix −, dose 556 μg/plate): 59
Number of revertant colonies TA100 ([2]; S9 mix −, dose 1667 μg/plate): 29
Number of revertant colonies TA100 ([2]; S9 mix −, dose 5000 μg/plate): 12
Number of revertant colonies TA1537 ([3]; S9 mix +, dose 6.9 μg/plate): 13
Number of revertant colonies TA1537 ([3]; S9 mix +, dose 21 μg/plate): 11
Number of revertant colonies TA1537 ([3]; S9 mix +, dose 62 μg/plate): 12
Number of revertant colonies TA1537 ([3]; S9 mix +, dose 185 μg/plate): 12
Number of revertant colonies TA1537 ([3]; S9 mix +, dose 556 μg/plate): 8
Number of revertant colonies TA1537 ([3]; S9 mix +, dose 1667 μg/plate): 3
Number of revertant colonies TA1537 ([3]; S9 mix +, dose 5000 μg/plate): 1
Number of revertant colonies TA1537 ([3]; S9 mix −, dose 6.9 μg/plate): 8
Number of revertant colonies TA1537 ([3]; S9 mix −, dose 21 μg/plate): 7
Number of revertant colonies TA1537 ([3]; S9 mix −, dose 62 μg/plate): 8
Number of revertant colonies TA1537 ([3]; S9 mix −, dose 185 μg/plate): 7
Number of revertant colonies TA1537 ([3]; S9 mix −, dose 556 μg/plate): 2
Number of revertant colonies TA1537 ([3]; S9 mix −, dose 1667 μg/plate): 3
Number of revertant colonies TA1537 ([3]; S9 mix −, dose 5000 μg/plate): 2
